Assays:
Caco-2 cells [1] = experiment: Apoptosis (sub-G1 events) by PI staining and flow cytometry; assay type: cell-based, human; details: Caco-2, 600 mM, incubated for 24 h
Method: Given that apoptosis is a common programmed mechanism regulating cell death, characterized by DNA fragmentation and an increase in sub-G1 events, we employed the method described by Riccardi and Nicolleti to assess potential apoptosis induction using flow cytometry. Cyanine dyes 5 and 10 were tested at concentrations of 1 µM and 10 µM, respectively. As positive controls for apoptosis, 600 mM sorbitol and 10 µM 5-FU were used, with untreated cells serving as the negative control. […] In contrast, dye 10 induced a slight increase in apoptosis, reaching 1.7%. […] Apoptotic bodies were more evident in cells treated with dye 5 compared to dye 10, which is further supported by the slightly higher apoptosis induction in this assay.
Apoptosis (sub-G1 events) and cell cycle distribution were evaluated by propidium iodide (PI) staining and flow cytometry, as described by Riccardi and Nicolleti. […] Untreated cells were used as the negative control, and sorbitol and 5-FU were used as positive controls. After incubation, the supernatant was collected in a centrifuge tube, cells were washed with PBS, trypsinized and wells were once again washed with PBS. This cell suspension was maintained on ice, centrifugated at 300 g for 5 min, and then the pellet was resuspended in 0.5 mL of PBS. Cells were fixed by adding 4.5 mL of 70% ethanol cooled at −20 °C on ice and were stored at −20 °C for a period ranging from one to a few days. On the day of flow cytometry analysis, PBS was added to the fixed cell tubes, followed by centrifugation and removal of the supernatant. The pellet was resuspended in 0.5 mL of PBS and 0.5 mL of DNA extraction solution (192 mL of 0.2 M sodium phosphate and 8 mL of […], pH 7.8). After incubation for 5 min, the cells were once again centrifuged, the supernatant was removed, and the pellet was resuspended in 0.3 mL of staining solution (20 µg/mL of PI and 0.2 mg/mL of DNase-free RNase in PBS). Using a FACSCalibur flow cytometer (Becton Dickinson, Franklin Lakes, NJ, USA) with a 488 nm laser line, a minimum of 20,000 events were acquired and recorded using the BD CellQuestTM Pro 4.0.2 software, and analyzed with FlowJo 10.5.3 software. To exclude debris and necrotic cells, events with a lower diameter (forward scatter; FCS) and PI fluorescence (FL3) than the hypodiploid apoptotic cells were eliminated (Figures S1 and S2). Two independent experiments were performed. A Student’s t-test was performed to evaluate the statistical significance of the results.

Caco-2 cells [2] = experiment: Caco-2 morphological analysis (optical microscopy); details: 24 h
Method: Sorbitol and 5-FU were used as positive controls, while untreated cells served as the negative control.
Caco-2 cells near confluency were trypsinized, counted, and then seeded at 3 × 10^4 cells/mL (3 mL) in 35 mm cell culture dishes previously treated for tissue culture. After cell adherence (48 h), they were incubated with solutions under study for 72 h in the absence of light. The cellular morphology was verified every 24 h using a CKX41 SF inverted microscope (Olympus, Tokyo, Japan) with 10, 20, or 40× objectives. A DC6 V digital camera (Olympus, Tokyo, Japan) coupled to the microscope was used to capture cell imaging. The morphology of cells in the presence or absence of treatments was compared.

OC[C@@H](O)[C@@H](O)[C@H](O)[C@@H](O)CO [sorbitol, reference compound]
apoptosis (sub-G1 events), % of cells (Caco-2 cells [1]): 37.9% | morphological changes of Caco-2 cells (Caco-2 cells [2]): marked increase in apoptotic bodies

From PMC11642940, “A New Demand for Improved Selectivity and Potency of Cyanine Dyes as Antiproliferative Agents Against Colorectal Cancer Cells” (Molecules, 2024)
